For data set [1] the following is noted: aqueous media; cited from earlier work.
Data set [2] can be described thus: Thermal stability of itraconazole. The format is physicochemical. The following applies: temperatures up to 300° C.

Structures are written as SMILES.

As for `CCC(C)n1ncn(-c2ccc(N3CCN(c4ccc(OCC5COC(Cn6cncn6)(c6ccc(Cl)cc6Cl)O5)cc4)CC3)cc2)c1=O` (single isomer, unassigned; (+)) [itraconazole, (+)-cis-4-[4-[4-[4-[[2-(2,4-dichlorophenyl)-2-(1H-1,2,4-triazol-1-yl-methyl)-1,3-dioxolan-4-yl]methoxy]phenyl]-1-piperazinyl]phenyl]-2,4-dihydro-2-(1-methylpropyl)-3H-1,2,4-triazol-3-one], the solubility entry in data set [1] is listed as “practically insoluble”. Moreover, the thermal stability result in data set [2] is given as “thermally very stable”.

Values taken from patent publication US8486456B2, “Itraconazole compositions with improved bioavailability” (Abbott GmbH & Co., KG, priority 2005, dated 2013).
